{
  "source": "patent US20220193209A1",
  "about": "“COMPOSITIONS AND METHODS FOR REACTIVATING LATENT IMMUNODEFICIENCY VIRUS AND/OR TREATING IMMUNODEFICIENCY VIRUS INFECTION” (The J. David Gladstone institutes, a testamentary trust …, priority 2019, published 2022)",
  "key": {"FOXO4": {"target": "T1, FOXO4 (Homo sapiens, UniProt P98177)", "T1 construct": "performed against the FOXO isoforms expressed in K562 cells; endogenous in cells; host or cells: K562", "T1 sequence (P98177 whole entry, canonical isoform)": "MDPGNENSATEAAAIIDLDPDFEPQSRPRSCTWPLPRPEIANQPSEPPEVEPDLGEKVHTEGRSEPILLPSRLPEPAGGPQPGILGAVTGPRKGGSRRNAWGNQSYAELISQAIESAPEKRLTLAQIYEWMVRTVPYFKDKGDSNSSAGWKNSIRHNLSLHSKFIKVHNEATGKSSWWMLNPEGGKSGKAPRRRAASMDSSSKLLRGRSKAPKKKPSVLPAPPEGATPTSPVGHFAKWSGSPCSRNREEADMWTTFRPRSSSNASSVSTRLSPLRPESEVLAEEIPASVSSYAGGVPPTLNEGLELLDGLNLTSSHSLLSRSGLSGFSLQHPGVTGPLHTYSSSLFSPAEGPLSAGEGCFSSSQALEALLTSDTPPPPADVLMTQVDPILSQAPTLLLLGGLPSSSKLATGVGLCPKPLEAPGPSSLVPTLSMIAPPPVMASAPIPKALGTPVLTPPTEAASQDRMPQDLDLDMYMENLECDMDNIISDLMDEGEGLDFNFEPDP", "assay": "Cellular Thermal Shift Assay (CETSA) in K562 cells, FOXO4", "format": "binding", "details": "1 μM", "protocol": "K562 cells (ATCC) were maintained in appropriate volume of RPMI medium supplemented with 10% fetal bovine serum (Serum Plus—II, Sigma MO, USA), 100 units/mL penicillin and 100 […] (Corning, VA, USA). Short-term passages (<15) were used for all experiments. For CETSA, K562 cell were freshly seeded the day before the experiment. The day of experiment, equal numbers of cells were counted by Moxi Mini automated cell counter (Orflo) and 0.6×10^6 cells per data point were seeded in T-25 cell culture flasks (VWR, PA, USA) in appropriate volume of culture medium. […] The supernatants were transferred to new microcentrifuge tubes and analyzed by SDS-PAGE followed by immunoblotting analysis. […] Immunoblotting results were subjected to densitometric analysis (Image J) and melting temperatures of FOXO1, FOXO3 and FOXO4 were determined by Prism 7 (GraphPad) using nonlinear least-squares regression fit to Y=100/(1+10^(Log IC50−X)*H), where H=Hill slope (variable). The viability of the cells was assessed in triplicate by trypan blue exclusion.\nWhether the effect of AS1842856 was mediated by its interaction with FOXO1 was confirmed. […] AS1842856-FOXO binding was considered ‘positive’ if there was a significant change in the thermal profile of the protein between the presence and the absence of the drug assessed by western blot (FIG. 2, Panel A). […]"}, "K562 cells": {"test_system": "K562 cells", "assay": "Cell viability of HIVGKO-infected K562 cells", "format": "cell-based", "details": "K562, increasing concentrations", "protocol": "Briefly, K562 cells were treated with increasing concentrations of the FOXO1 inhibitor AS1842856 just after HIVGKO infection. After 3-4 days, the percentage of latent cells and productive cells were quantified by FACS. In left panel, amount of productive or latent cells relative to the total infection rate (bars) and cell viability (dots). In the right panel, ratios of productive versus latent populations upon increasing concentrations of AS1842856 treatments. Data are represented as mean f SD of triplicate values, representative of three independent experiments. FIG. 1, Panel B depicts FOXO1, FOXO3 and FOXO4 CETSA-melting curve shifts upon the presence or absence of AS1842856 1000 nM in K562 cells. Band intensities obtained from western blot analysis were related to the highest western blot signal which has been set to 100%. Relative FOXO-band intensities were plotted against corresponding incubation temperatures and a nonlinear least-squares regression fit was applied. Data represent the mean±SD of three individual experiments. FIG. 1, Panel C depicts the efficiency of FOXO1, FOXO3 and FOXO4 knockdowns with two different sgRNAs checked by western blot. Cells transduced with NC (negative control) sgRNA lentiviruses were used as a control. […]"}},
  "data": [
    {"molecule": "CCn1cc(C(=O)O)c(=O)c2c(N)c(F)c(NC3CCCCC3)cc21", "note": "[AS1842856, 5-amino-7-(cyclohexylamino)-1-ethyl-6-fluoro-4-oxo-1,4-dihydro-quinoline-3-carboxylic acid]", "values": [
      {"measurement": "change in FOXO4 melting curve", "setting": "FOXO4", "result": "no changes"},
      {"measurement": "viability", "setting": "K562 cells", "result": "no significant changes"}
    ]}
  ]
}
